Literature values as cited in paper PMC6048117 (Scientific Reports, 2018).
Like-named read-outs stand apart in the source and are kept apart here.

How the values were obtained:
[1] = test system: nigral 6-OHDA partial or full lesion rat model

Substance	Neuroprotection in MPTP model (MPTP model; 10 nmol/kg)	Neuroprotection in MPTP model (MPTP model; 25 nmol/kg)	Efficacy in nigral 6-OHDA partial or full lesion rat model [1]
lixisenatide	did demonstrate neuroprotection	–	–
liraglutide (HAEGTFTSDVSSYLEGQAAKEFIAWLVRGRG; chains of the INN, looked up) [GLP-1R agonist]	–	did demonstrate neuroprotection	failed to demonstrate efficacy
